From patent US20210107874A1, “PHARMACEUTICAL FORMULATION OF CROTONYLAMINOPYRIDINE SALT” (priority 2017, published 2021)
Values after ≈ are worked out from the molar mass of the structure shown. Read-outs that look alike come from different tables or passages of the source. Each block holds one compound with its values, some of them ahead of it.

Key:
Type in all cases: physicochemical
[1] = Stability tests of solutions of compound 4 with equimolar acids in water; conditions: for solubility: water with equimolar acid, thermodynamic from solid
Procedure: Equimolar amounts of compound 4 and acids were diluted with water: Water was added until all residues were dissolved. 200, 100 and 50 mg of compound 4 was used, each amount was combined with each acid of the following list. The solutions were equilibrated at room temperature and then held for 7 days at room temperature and thereafter 7 days at 8° C.

[2] = Solubility of salts of compound 4: compound added in portions to acid in water until no clear solution; conditions: for Dissolved g of 4 / pH: clear solution
Procedure: A defined amount of an acid (1.0 g) was weighed into a flask and dissolved in water (10 ml). […] The pH value was measured after each addition.
Thus 8 g of compound 4 in 10 ml of water can be dissolved.

[3] = Quantitative determination of solubility of compound 5 (UPLC); conditions: 25 °C, aqueous buffer, thermodynamic from solid
Procedure: Compound 5 (120 mg) was weighed into shell vials and combined with acid (600 μl of a 350 mM solution of the respective acid in water).

[4] = 0.5 g Acetic acid in 10 ml water
[5] = 1.0 g Citric acid in 10 ml water
[6] = 1.0 g Tartaric acid in 10 ml water

SMILES: CCOc1cc(NCCNC(=O)/C=C/C(F)(F)F)ccn1 [Compound 4, (E)-N-[2-[(2-ethoxy-4-pyridyl)amino]ethyl]-4,4,4-trifluoro-but-2-enamide]
pH ([1]; equimolar Citric acid in water): 3.41
pH ([1]; equimolar D-glucoronic acid in water): 4.15
pH ([1]; equimolar Ethanesulfonic acid in water): 1.23
pH ([1]; equimolar Fumaric acid in water): 3.74
pH ([1]; equimolar Hydrochloric acid in water): 1.15
pH ([1]; equimolar L-lactic acid in water): 4.28
pH ([1]; equimolar Methanesulfonic acid in water): 1.28
pH ([1]; equimolar Oxalic acid in water): 2.14
pH ([1]; equimolar Sulfuric acid in water): 0.06
pH ([1]; equimolar Tartaric acid in water): 3.35
solubility ([1]; pH 0.06, water, equimolar Sulfuric acid in water): > 200 mg/mL
solubility ([1]; pH 1.15, water, equimolar Hydrochloric acid in water): > 200 mg/mL
solubility ([1]; pH 1.23, water, equimolar Ethanesulfonic acid in water): > 200 mg/mL
solubility ([1]; pH 1.28, water, equimolar Methanesulfonic acid in water): > 200 mg/mL
solubility ([1]; pH 2.14, water, equimolar Oxalic acid in water): > 200 mg/mL
solubility ([1]; water, equimolar Citric acid in water): > 200 mg/mL
solubility ([1]; water, equimolar D-glucoronic acid in water): > 100 mg/mL
solubility ([1]; water, equimolar Fumaric acid in water): > 200 mg/mL
solubility ([1]; water, equimolar L-lactic acid in water): > 100 mg/mL
solubility ([1]; water, equimolar Phosphoric acid in water): > 100 mg/mL
solubility ([1]; water, equimolar Tartaric acid in water): > 200 mg/mL
solubility ([1]; water, equimolar acetic acid in water): < 50 mg/mL
solubility ([1]; water, equimolar benzenesulfonic acid in water): < 50 mg/mL
solubility ([1]; water, equimolar benzoic acid in water): < 50 mg/mL
solubility ([1]; water, equimolar ethanedisulfonic acid in water): < 50 mg/mL
solubility ([1]; water, equimolar isethionic acid in water): > 200 mg/mL
solubility ([1]; water, equimolar maleic acid in water): < 50 mg/mL
solubility ([1]; water, equimolar malonic acid in water): < 50 mg/mL
solubility ([1]; water, equimolar p-toluenesulfonic acid in water): < 50 mg/mL
solubility ([1]; water, equimolar saccharin in water): < 50 mg/mL
solubility ([1]; water, equimolar succinic acid in water): < 50 mg/mL
Dissolved g of 4 [2, 4]: 1 g
pH [2, 4]: 4.6
Dissolved g of 4 [2, 5]: 2.5 g
pH [2, 5]: 4.4
Dissolved g of 4 ([2]; 1.0 g Maleic acid in 10 ml water): <0.1 g
Dissolved g of 4 [2, 6]: 3.5 g
pH [2, 6]: 4.2
appearance of solution ([2]; 2 g compound 4 and 1 g tartaric acid in 2.5 ml water): clear solution
amount that can be dissolved in 10 ml of water ([2]; with tartaric acid, scaled from 2 g in 2.5 ml): 8 g

solubility at 1 day ([3]; aqueous acid solution (350 mM citric acid in water), Citric acid 350 mM in water, read-out: Solubility T = 1 Day): 160 mg/mL (≈ 559 mM)
solubility at 1 day ([3]; aqueous acid solution (350 mM citric acid in water), Citric acid 350 mM in water, read-out: Solubility T = 1 Day Average): 149 mg/mL (≈ 523 mM)
solubility at 3 days ([3]; aqueous acid solution (350 mM citric acid in water), Citric acid 350 mM in water, read-out: Solubility T = 3 Days): 153 mg/mL (≈ 536 mM)
solubility at 3 days ([3]; aqueous acid solution (350 mM citric acid in water), Citric acid 350 mM in water, read-out: Solubility T = 3 Days Average): 151 mg/mL (≈ 529 mM)
solubility at 1 day ([3]; aqueous acid solution (350 mM ethanesulfonic acid in water), Ethanesulfonic acid 350 mM in water, read-out: Solubility T = 1 Day): 155 mg/mL (≈ 543 mM)
solubility at 1 day ([3]; aqueous acid solution (350 mM ethanesulfonic acid in water), Ethanesulfonic acid 350 mM in water, read-out: Solubility T = 1 Day Average): 145 mg/mL (≈ 507 mM)
solubility at 3 days ([3]; aqueous acid solution (350 mM ethanesulfonic acid in water), Ethanesulfonic acid 350 mM in water, read-out: Solubility T = 3 Days): 167 mg/mL (≈ 587 mM)
solubility at 3 days ([3]; aqueous acid solution (350 mM ethanesulfonic acid in water), Ethanesulfonic acid 350 mM in water, read-out: Solubility T = 3 Days Average): 165 mg/mL (≈ 578 mM)
solubility at 1 day ([3]; aqueous acid solution (350 mM fumaric acid in water), Fumaric acid 350 mM in water, read-out: Solubility T = 1 Day): 152 mg/mL (≈ 531 mM)
solubility at 1 day ([3]; aqueous acid solution (350 mM fumaric acid in water), Fumaric acid 350 mM in water, read-out: Solubility T = 1 Day Average): 149 mg/mL (≈ 522 mM)
solubility at 3 days ([3]; aqueous acid solution (350 mM fumaric acid in water), Fumaric acid 350 mM in water, read-out: Solubility T = 3 Days): 140 mg/mL (≈ 490 mM)
solubility at 3 days ([3]; aqueous acid solution (350 mM fumaric acid in water), Fumaric acid 350 mM in water, read-out: Solubility T = 3 Days Average): 153 mg/mL (≈ 535 mM)
solubility at 1 day ([3]; aqueous acid solution (350 mM malic acid in water), Malic acid 350 mM in water, read-out: Solubility T = 1 Day): 129 mg/mL (≈ 451 mM)
solubility at 1 day ([3]; aqueous acid solution (350 mM malic acid in water), Malic acid 350 mM in water, read-out: Solubility T = 1 Day Average): 122 mg/mL (≈ 427 mM)
solubility at 3 days ([3]; aqueous acid solution (350 mM malic acid in water), Malic acid 350 mM in water, read-out: Solubility T = 3 Days): 117 mg/mL (≈ 409 mM)
solubility at 3 days ([3]; aqueous acid solution (350 mM malic acid in water), Malic acid 350 mM in water, read-out: Solubility T = 3 Days Average): 116 mg/mL (≈ 408 mM)
solubility at 1 day ([3]; aqueous acid solution (350 mM oxalic acid in water), Oxalic acid 350 mM in water, read-out: Solubility T = 1 Day): 149 mg/mL (≈ 523 mM)
solubility at 1 day ([3]; aqueous acid solution (350 mM oxalic acid in water), Oxalic acid 350 mM in water, read-out: Solubility T = 1 Day Average): 142 mg/mL (≈ 498 mM)
solubility at 3 days ([3]; aqueous acid solution (350 mM oxalic acid in water), Oxalic acid 350 mM in water, read-out: Solubility T = 3 Days): 155 mg/mL (≈ 544 mM)
solubility at 3 days ([3]; aqueous acid solution (350 mM oxalic acid in water), Oxalic acid 350 mM in water, read-out: Solubility T = 3 Days Average): 155 mg/mL (≈ 544 mM)
solubility at 1 day ([3]; aqueous acid solution (350 mM oxoglutaric acid in water), Oxoglutaric acid 350 mM in water, read-out: Solubility T = 1 Day): 128 mg/mL (≈ 447 mM)
solubility at 1 day ([3]; aqueous acid solution (350 mM oxoglutaric acid in water), Oxoglutaric acid 350 mM in water, read-out: Solubility T = 1 Day Average): 129 mg/mL (≈ 453 mM)
solubility at 3 days ([3]; aqueous acid solution (350 mM oxoglutaric acid in water), Oxoglutaric acid 350 mM in water, read-out: Solubility T = 3 Days): 135 mg/mL (≈ 472 mM)
solubility at 3 days ([3]; aqueous acid solution (350 mM oxoglutaric acid in water), Oxoglutaric acid 350 mM in water, read-out: Solubility T = 3 Days Average): 134 mg/mL (≈ 468 mM)
solubility at 1 day ([3]; aqueous acid solution (350 mM tartaric acid in water), Tartaric acid 350 mM in water, read-out: Solubility T = 1 Day): 117 mg/mL (≈ 410 mM)
solubility at 1 day ([3]; aqueous acid solution (350 mM tartaric acid in water), Tartaric acid 350 mM in water, read-out: Solubility T = 1 Day Average): 137 mg/mL (≈ 481 mM)
solubility at 3 days ([3]; aqueous acid solution (350 mM tartaric acid in water), Tartaric acid 350 mM in water, read-out: Solubility T = 3 Days): 162 mg/mL (≈ 567 mM)
solubility at 3 days ([3]; aqueous acid solution (350 mM tartaric acid in water), Tartaric acid 350 mM in water, read-out: Solubility T = 3 Days Average): 163 mg/mL (≈ 571 mM)
SMILES: COc1cc(NCCNC(=O)/C=C/C(C)(F)F)ccn1 [Compound 5]
